# In USRE36374E, “1,2,3-triazole and tetrazole substituted piperidine or tetrahydropyridine compounds useful as acetylcholine agonists” (priority 1987, dated 1999):
# Counter-ions that a name gives are not always drawn. Like-named read-outs stand apart in the source and are kept apart here.
# How the values were obtained:
# [1] = target: central cholinergic receptors; experiment: 3H-oxotremorine-M (Oxo-M) displacement from rat brain homogenates; type: binding; conditions: displacement of 3H-oxotremorine-M, pH 7.4, 40 min, 30° C
# Protocol: (§1) Affinity to central cholinergic receptors in vitro was measured as the ability of the compounds to displace ^3 H-oxotremorine-M (Oxo-M) from rat brain homogenates, while affinity to central muscarinic M-1-receptors in vitro was measured as the ability of the compounds to displace ^3 H-pirenzepin (Pz) from rat brain homogenates.
# ^3 H-oxotremorine M binding
# was performed essentially as described by Birdsdall et al., 1980. Briefly, rat brains were homogenized in 100 vol (w/v) 10 mM Na,K-phosphate buffer (pH 7.4) and aliquots incubated with ^3 H-oxotremorine M (84.9 Ci/m-mol, NEN) alone or in the presence of test compound in a total volume of 1.5 ml for 40 min. at 30° C. The reaction was stopped by adding 5 ml cold buffer and filtered through Whatman GF/B filters soaked previously in 0.1% polyethylenimin (Sigma) for minimum 30 min. The filters were washed once with the same volume of buffer, transferred to scintillation vials and extracted in scintillation fluid (Pico-fluor 15, Packard) for at least two hours before counted in a liquid scintillation spectrometer (Beckman LS 1800). Non-specific binding was estimated at 10 μM atropine and all estimations made in triplicate. At least two displacement curves were made for each compound tested.
# Birdsdall N. J. M., Hulme E. C., and Burgen A. S. V. (1980). "The Character of Muscarinic Receptors in Different Regions of the Rat Brain". Proc. Roy. […] London (Series B) 207, 1.
# [2] = target: T1, central muscarinic M-1-receptors (Rattus norvegicus, UniProt P08482); experiment: 3H-pirenzepine (Pz) displacement from rat brain homogenates; type: binding
# T1 sequence (P08482 1-460): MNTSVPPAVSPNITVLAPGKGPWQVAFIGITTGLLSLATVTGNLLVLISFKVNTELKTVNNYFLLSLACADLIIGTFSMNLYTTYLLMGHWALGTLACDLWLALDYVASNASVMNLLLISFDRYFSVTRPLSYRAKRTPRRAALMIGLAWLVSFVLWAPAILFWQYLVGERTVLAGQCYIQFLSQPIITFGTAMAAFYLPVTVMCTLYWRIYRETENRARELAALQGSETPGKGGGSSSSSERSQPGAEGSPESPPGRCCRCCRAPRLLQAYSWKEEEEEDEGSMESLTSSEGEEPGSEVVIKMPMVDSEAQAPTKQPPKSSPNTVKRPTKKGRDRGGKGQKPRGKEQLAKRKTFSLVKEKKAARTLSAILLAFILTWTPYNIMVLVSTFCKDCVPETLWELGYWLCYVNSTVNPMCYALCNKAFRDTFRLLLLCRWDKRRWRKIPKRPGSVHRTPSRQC
# Protocol: as §1
# was performed essentially as described by Watson et al., 1983, the conditions being very much the same as for ^3 H-oxotremorine binding, except that aliquots were incubated with 1.0 nM ^3 H-pirenzepine for 60 min. at 25° C. and that the reaction was stopped by direct filtration followed by 3 washes with 4 ml buffer.
# Watson, M., Yamamura, H. I., and Roeske, W. R. (1983). "A unique regulatory profile and regional distribution of ^3 H-pirenzepin binding in the rat provide evidence for distinct M1 and M2 muscarinic receptor subtypes". Life Sci. 32 (1983) 3001-3011.
# [3] = displacement of 1.0 nM 3H-pirenzepine, rat brain homogenates, 60 min, 25° C, read-out: Pz, IC50
Structure (SMILES),IC50 [1] [nM],"IC50 [2, 3] [nM]",IC50 [2] [nM]
"Cn1nnc(C2=CCCNC2)n1 [Compound 8, 2-Methyl-5(1,2,5,6-tetrahydro-3-pyridyl)-2H-tetrazole, hydrobromide]",6.3,2100,–
"Cn1nnnc1C1=CCCNC1 [Compound 9, 1-Methyl-5(1,2,5,6-tetrahydro-3-pyridyl)-2H-tetrazole, fumarate]",3200,27000,–
"CN1CCC=C(c2nnn(C)n2)C1 [Compound 10, 2-Methyl-5-(1-methyl-1,2,5,6-tetrahydro-3-pyridyl)2H-tetrazole]",8.7,390,–
"Cn1nnc(C2CCCNC2)n1 (centres unmarked) [Compound 13, 2-Methyl-(3-piperidyl)-2H-tetrazole, hydrochloride]",47,–,3600
"CN1CCCC(c2nnn(C)n2)C1 (centres unmarked) [Compound 14, 2-Methyl-5-methyl-3-piperidyl)-2H-tetrazole, oxalate]",1700,7400,–
"CC(C)n1nnc(C2=CCCN(C)C2)n1 [Compound 16, 2-Isopropyl-5-(1-methyl-1,2,5,6-tetrahydro-3-pyridyl)-2H-tetrazole, fumarate]",120,130,–
"CC(C)n1nnc(C2=CCCNC2)n1 [Compound 17, 2-Isopropyl-5-(1,2,5,6-tetrahydro-3-pyridyl)-2H-tetrazole, hydrobromide]",280,480,–
"CCn1nnc(C2=CCCNC2)n1 [Compound 19, 2-Ethyl-5-(1,2,5,6-tetraydro-3-pyridyl)-2H-tetrazole, hydrobromide]",32,1500,–
"CCn1nnc(C2=CCCN(C)C2)n1 [Compound 20, 2-Ethyl-5-(1-methyl-1,2,5,6-tetrahydro-3-pyridyl)-2H-tetrazole, oxalate]",16,130,–
"C#CCn1nnc(C2=CCCNC2)n1 [Compound 22, 2-(2-Propynyl)-5-(1,2,5,6-tetrahydropyridyl)-2H-tetrazole, hydrochloride]",–,380,–
"C=C=Cn1nnc(C2=CCCNC2)n1 [Compound 23, 2-Allenyl-5-(1,2,5,6-tetrahydro-3-pyridyl)-2H-tetrazole, hydrochloride]",140,1100,–
"C#CCn1nnc(C2CCCNC2)n1 (centres unmarked) [Compound 26, 2-(2-Propynyl)-5-(3-piperidyl)2H-tetrazole, hydrochloride]",44,–,400
"CC1CC=C(c2nnn(C)n2)CN1 (centres unmarked) [Compound 30, 2-Methyl-5-(6-methyl-1,2,5,6-tetrahydro-3-pyridyl)-2H-tetrazole, hydrobromide]",250,1400,–
"CC1CC=C(c2nnn(C)n2)CN1C (centres unmarked) [Compound 31, 2-Methyl-5-(1,6-dimethyl-1,2,5,6-tetrahydro-3-pyridyl)-2H-tetrazole]",310,140,–
"CC1CC=C(c2nnn(C(C)C)n2)CN1 (centres unmarked) [Compound 33, 2-Isopropyl-5-(6-methyl-1,2,5,6-tetraydro-3-pyridyl)-2H-tetrazole, hydrobromide]",320,900,–
"CC1CC=C(c2nnn(C(C)C)n2)CN1C (centres unmarked) [Compound 34, 2-Isopropyl-5-(1,6-dimethyl-1,2,5,6-tetrahydro-3-pyridyl)-2H-tetrazole]",180,350,–
"C#CCn1nnc(C2=CCC(C)NC2)n1 (centres unmarked) [Compound 36, 2-(2-Propynyl-5-(6-methyl-1,2,5,6-tetrahydro-3-pyridyl)-2H-tetrazole, hydrochloride]",390,250,–
"CC1=C(c2nnn(C)n2)CN(C)CC1 [Compound 38, 2-Methyl-5(1,4-dimethyl-1,2,5,6-tetrahydro-3-pyridyl)-2H-tetrazole, oxalate]",1000,1200,–

Structure (SMILES),IC50 [1] [nM],"IC50 [2, 3] [nM]",IC50 [2] [nM]
"CC1=C(c2nnn(C)n2)CNCC1 [Compound 39, 2-Methyl-5-(4-methyl-1,2,5,6-tetrahydro-3-pyridyl)-2H-tetrazole, 0.75 oxalate]",810,1500,–
"CC1C=C(c2nnn(C)n2)CNC1 (centres unmarked) [Compound 47, 2-Methyl-5-(5-methyl-1,2,5,6-tetrahydro-3-pyridyl)-2H-tetrazole, hydrobromide]",98,280,–
"CC1C=C(c2nnn(C)n2)CN(C)C1 (centres unmarked) [Compound 48, 2-Methyl-5-(1,5-dimethyl-1,2,5,6-tetrahydro-3-pyridyl)-2H tetrazole, oxalate]",680,1800,–
"C#CCn1nnc(C2=CC(C)CNC2)n1 (centres unmarked) [Compound 50, 2-(2-Propynyl)-5-(5-methyl-1,2,5,6-tetrahydro-3-pyridyl)-2H-tetrazole hydrochloride]",62,68,–
"Cc1cc(C2=CCCNC2)on1 [Compound 54, 3-Methyl-5(1,2,5,6-tetrahydro-3-pyridyl)-isoxazole, maleate]",230,4000,–
"Cc1cc(C2=CCCNC2)no1 [Compound 55, 5-Methyl-3-(1,2,5,6-tetrahydro-3-pyridyl)-isoxazole, hydrochloride]",1000,2500,–
"CN1CCC=C(c2ncn(C)n2)C1 [Compound 59, 1-Methyl-3(1-methyl-1,2,5,6-tetrahydro-3-pyridyl)-1,2,4-triazole, hemifumarate]",280,610,–
"Cn1cnc(C2=CCCNC2)n1 [Compound 60, 1-Methyl-3-(1,2,5,6-tetrahydro-3-pyridyl-1,2,4-triazole, dihydrobromide]",1400,4900,–
"Cc1nc(C2=CCCN(C)C2)nn1C [Compound 63, 1,5-Dimethyl-3-(1-methyl-1,2,5,6-tetraydro-3-pyridyl)-1,2,4-triazole, fumarate]",710,160,–
"Cc1nc(C2=CCCNC2)nn1C [Compound 64, 1,5Dimethyl-3-(1,2,5,6-tetrahydro-3-pyridyl)-1,2,4-triazole, dihydrobromide, dihydrate]",2100,2400,–
"CSc1n[nH]c(C2=CCCN(C)C2)n1 [Compound 67, 3-Methylthio-5-(1-methyl-1,2,5,6-tetrahydro-3-pyridyl)-1,2,4-triazole, fumarate]",1500,2000,–
"CN1CCC=C(c2cnn(C)n2)C1 [Compound 70, 2-Methyl-4-(1-methyl-1,2,5,6-tetrahydro-3-pyridyl)-1,2,3-triazole, 1.5 fumarate]",1.1,5.5,–
"Cn1ncc(C2=CCCNC2)n1 [Compound 72, 2-Methyl-4-(1,2,5,6-tetrahydro-3-pyridyl)-1,2,3-triazole, fumarate]",0.48,790,–
"Cc1cnc(C2=CCCN(C)C2)o1 [Compound 75, 5-Methyl-2-(1-methyl-1,2,5,6-tetraydro-3-pyridyl)-oxazole, oxalate]",57,370,–
"Cc1cnc(C2=CCCNC2)o1 [Compound 76, 5-Methyl-2-(1,2,5,6-tetrahydro-3-pyridyl)-oxazole, fumarate]",190,1300,–
"COc1cnc(C2=CCCN(C)C2)o1 [Compound 80, 5-Methoxy-2-(1-methyl-1,2,5,6-tetrahydro-3-pyridyl)-oxazol, oxalate]",–,1500,–
"COc1cnc(C2=CCCNC2)o1 [Compound 81, 5-Methoxy-2-(1,2,5,6-tetrahydro-3-pyridyl)-oxazole, 1.25 fumarate]",220,4200,–
